{"source": "patent US20210032345A1", "about": "“ANTI-PD-L1 ANTIBODIES, COMPOSITIONS AND ARTICLES OF MANUFACTURE” (Genentech, Inc., priority 2008, published 2021)", "target": "PD-L1", "test": "FACS binding, rat", "conditions": "half-maximal binding", "description": "All samples were run on a […] FACSCalibur and Mean Fluorescence Intensity of PD-L1 binding data as a function of anti-PD-L1 antibody concentration was analyzed using Tree Star, Inc. FlowJo® software; EC50, values (Ab concentration associated with half-maximal binding) were calculated using Kaleidagraph. In addition, equilibrium binding studies were performed to define accurate affinities (Kds) for YW24355570 binding to human and mouse PD-L1 expressed on 293 cells (Example 3B).", "data": [{"substance": "YW243.55.S70: affinity-matured phage anti-PD-L1 antibody derived from YW243.55, selected as the primary candidate; full length IgG1", "values": [{"measurement": "EC50", "value": 0.8, "unit": "nM"}]}]}
